Measured values taken from PubChem BioAssay (NCI).
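96-well plates; 48 h exposure; 5 concentrations. Endpoints by linear interpolation between flanking doses. Not reached: highest tested concentration assigned. The concentration for 50% growth inhibition is given as GI50. Definition used: TGI = concentration required for complete inhibition of growth.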

Experiments:
Assay in all cases: NCI-60 cell line screen, 48 h
[1] = tested on: 786-0 renal
[2] = tested on: A498 renal
[3] = tested on: A549 NSCLC
[4] = tested on: ACHN renal
[5] = tested on: BT-549 breast
[6] = tested on: CAKI-1 renal
[7] = tested on: CCRF-CEM leukemia
[8] = tested on: COLO 205 colon
[9] = tested on: DU-145 prostate
[10] = tested on: HCC-2998 colon
[11] = tested on: HCT-116 colon
[12] = tested on: HCT-15 colon
[13] = tested on: HL-60(TB) leukemia
[14] = tested on: HOP-62 NSCLC
[15] = tested on: HOP-92 NSCLC
[16] = tested on: HS 578T breast
[17] = tested on: HT29 colon
[18] = tested on: IGROV1 ovarian
[19] = tested on: K-562 leukemia
[20] = tested on: KM12 colon
[21] = tested on: LOX IMVI melanoma
[22] = tested on: M14 melanoma
[23] = tested on: MALME-3M melanoma
[24] = tested on: MCF7 breast
[25] = tested on: MDA-MB-231 breast
[26] = tested on: MDA-MB-435
[27] = tested on: MOLT-4 leukemia
[28] = tested on: NCI-H226 lung
[29] = tested on: NCI-H23 lung
[30] = tested on: NCI-H460 lung
[31] = tested on: NCI-H522 lung
[32] = tested on: NCI/ADR-RES ovarian
[33] = tested on: OVCAR-3 ovarian
[34] = tested on: OVCAR-4 ovarian
[35] = tested on: OVCAR-5 ovarian
[36] = tested on: OVCAR-8 ovarian
[37] = tested on: PC-3 prostate
[38] = tested on: RPMI-8226 leukemia
[39] = tested on: RXF 393 renal
[40] = tested on: SF-268 CNS
[41] = tested on: SF-295 CNS
[42] = tested on: SF-539 CNS
[43] = tested on: SK-MEL-2 melanoma
[44] = tested on: SK-MEL-28 melanoma
[45] = tested on: SK-MEL-5 melanoma
[46] = tested on: SK-OV-3 ovarian
[47] = tested on: SN12C renal
[48] = tested on: SNB-19 CNS
[49] = tested on: SNB-75 CNS
[50] = tested on: SR leukemia
[51] = tested on: SW-620 colon
[52] = tested on: T-47D breast
[53] = tested on: TK-10 renal
[54] = tested on: U251 CNS
[55] = tested on: UACC-257 melanoma
[56] = tested on: UACC-62 melanoma
[57] = tested on: UO-31 renal

O=C1C=CC(=O)N1C1CCCCCCCCCCC1
GI50 [1]: 16.1 µM
TGI [1]: 29.7 µM
GI50 [2]: 16.5 µM
TGI [2]: > 93.7 µM
GI50 [3]: 32.8 µM
TGI [3]: > 100 µM
GI50 [4]: 2.73 µM
TGI [4]: 7.69 µM
GI50 [5]: 11.3 µM
TGI [5]: 24.6 µM
GI50 [6]: 5.95 µM
TGI [6]: 16.3 µM
GI50 [7]: 0.939 µM
TGI [7]: 4.93 µM
GI50 [8]: 2.78 µM
TGI [8]: 8.16 µM
GI50 [9]: 13.9 µM
TGI [9]: 27.2 µM
GI50 [10]: 28.9 µM
TGI [10]: > 73.8 µM
GI50 [11]: 2.15 µM
TGI [11]: 4.94 µM
GI50 [12]: 3.72 µM
TGI [12]: 14.9 µM
GI50 [13]: 5.25 µM
TGI [13]: 15.9 µM
GI50 [14]: 31.5 µM
TGI [14]: > 100 µM
GI50 [15]: 2.12 µM
TGI [15]: 7.72 µM
GI50 [16]: 17.8 µM
TGI [16]: > 65.3 µM
GI50 [17]: 7.86 µM
TGI [17]: 26.4 µM
GI50 [18]: 13.6 µM
TGI [18]: > 49.2 µM
GI50 [19]: 2.93 µM
TGI [19]: 12.8 µM
GI50 [20]: 41.2 µM
TGI [20]: > 100 µM
GI50 [21]: 2.44 µM
TGI [21]: 6.72 µM
GI50 [22]: 10.4 µM
TGI [22]: 25.8 µM
GI50 [23]: 5.07 µM
TGI [23]: 15.8 µM
GI50 [24]: 3.58 µM
TGI [24]: 16.3 µM
GI50 [25]: 14.5 µM
TGI [25]: 30 µM
GI50 [26]: 13.7 µM
TGI [26]: 28.5 µM
GI50 [27]: 3.28 µM
TGI [27]: 20.1 µM
GI50 [28]: 9.75 µM
TGI [28]: 24.3 µM
GI50 [29]: 19.1 µM
TGI [29]: 47.5 µM
GI50 [30]: 81.1 µM
TGI [30]: > 100 µM
GI50 [31]: 1.7 µM
TGI [31]: 3.37 µM
GI50 [32]: 30.6 µM
TGI [32]: > 100 µM
GI50 [33]: 6.4 µM
TGI [33]: 16.2 µM
GI50 [34]: 11.5 µM
TGI [34]: 24.2 µM
GI50 [35]: 19.8 µM
TGI [35]: 48.7 µM
GI50 [36]: 13.9 µM
TGI [36]: 27.4 µM
GI50 [37]: 14.2 µM
TGI [37]: 30.9 µM
GI50 [38]: 4.91 µM
TGI [38]: 34 µM
GI50 [39]: 4.96 µM
TGI [39]: 17.1 µM
GI50 [40]: 19.2 µM
TGI [40]: 51.8 µM
GI50 [41]: 78.7 µM
TGI [41]: > 100 µM
GI50 [42]: 15.3 µM
TGI [42]: 29.4 µM
GI50 [43]: 16.4 µM
TGI [43]: 33.8 µM
GI50 [44]: 14.5 µM
TGI [44]: 28.3 µM
GI50 [45]: 16.4 µM
TGI [45]: 37 µM
GI50 [46]: > 65.5 µM
TGI [46]: > 100 µM
GI50 [47]: 15.6 µM
TGI [47]: 33 µM
GI50 [48]: > 84.6 µM
TGI [48]: > 100 µM
GI50 [49]: 12.7 µM
TGI [49]: > 79.9 µM
GI50 [50]: 2.23 µM
TGI [50]: 23.8 µM
GI50 [51]: 2.59 µM
TGI [51]: 8.14 µM
GI50 [52]: 3.08 µM
TGI [52]: 11.3 µM
GI50 [53]: 3.35 µM
TGI [53]: 11.8 µM
GI50 [54]: 27 µM
TGI [54]: > 86.9 µM
GI50 [55]: 13 µM
TGI [55]: 27.2 µM
GI50 [56]: 14.7 µM
TGI [56]: 28.5 µM
GI50 [57]: 3.42 µM
TGI [57]: 14.2 µM
